Laboratory results: patent US20250195498A1, “INHIBITOR OF CELLULAR PURINE NUCLEOTIDE SALVAGE PATHWAY ENZYME FOR USE IN THE TREATMENT AND/OR PREVENTION OF HELICOBACTER PYLORI INFECTION AND/OR DISEASE ASSOCIATED WITH SUCH INFECTION AND PHARMACEUTICAL COMPOSITION COMPRISING THE SAME” (UNIWERSYTET WARSZAWSKI, priority 2022, published 2025)
Like-named read-outs stand apart in the source and are kept apart here.

What was measured:
PNP from E. coli [1] = target: T1, PNP from E. coli (Escherichia coli, UniProt P0ABP8); assay: Inhibition of PNP from E. coli; format: biochemical; details: previous work of the inventors
T1 sequence (P0ABP8 2-239): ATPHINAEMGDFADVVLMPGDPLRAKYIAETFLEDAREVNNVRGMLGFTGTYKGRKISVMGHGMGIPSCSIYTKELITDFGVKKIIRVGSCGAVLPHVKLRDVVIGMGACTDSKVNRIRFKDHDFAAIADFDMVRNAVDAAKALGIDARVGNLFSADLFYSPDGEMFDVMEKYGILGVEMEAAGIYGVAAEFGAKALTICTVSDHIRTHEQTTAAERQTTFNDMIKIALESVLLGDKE

PNP from E. coli [2] = target: T1, PNP from E. coli; details: read-out: inhibition constant; cited from earlier work
[3] = target: T2, PNP from H. pylori strain 26695 (Helicobacter pylori, UniProt P56463); details: formycins; Wojtyś et al., 2021; read-out: inhibition constant; cited from earlier work
T2 construct: made in house; host or cells: E. coli
T2 sequence (P56463 whole entry): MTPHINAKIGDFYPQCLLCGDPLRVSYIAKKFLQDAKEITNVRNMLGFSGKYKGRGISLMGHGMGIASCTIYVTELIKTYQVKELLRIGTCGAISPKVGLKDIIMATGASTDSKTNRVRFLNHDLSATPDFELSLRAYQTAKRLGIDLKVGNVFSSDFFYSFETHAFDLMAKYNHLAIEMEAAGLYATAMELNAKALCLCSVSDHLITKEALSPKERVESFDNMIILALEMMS

H. pylori strain 26695 = assay: Growth curve method / MIC in liquid culture, strain 26695; format: cell-based, Helicobacter pylori; details: 2.5 mM; strain not stated, method of Example 3
Procedure: The representative PNP inhibitor from H. pylori included in this study was immucillin A. The experiment was conducted using the growth curve method (two-fold serial dilutions in liquid medium). The tested H. pylori strains were cultured in Petri dishes with BHI solid medium supplemented with 10% FBS and 1% H. pylori Selective Supplement antibiotic kit, in anaerostats under microaerophilic conditions (5% 02, 10% CO2, 85% N2) at 37° C. for 3 days. Liquid culture of H. pylori was conducted overnight with shaking at 37° C. under microaerophilic conditions in BHI medium supplemented with 10% FBS and 1% H. pylori Selective Supplement antibiotic kit. Subsequently, for the essential experiment of determining the minimum inhibitory concentration (MIC), double strengthened liquid BHI medium was prepared, that is, supplemented with 20% FBS and a 2% set of H. pylori Selective Supplement antibiotics.
Bacterial proliferation inhibition experiments were carried out in 24-deep-well 2 ml flat-bottomed plates at a solution volume per well of 0.5 ml. In a single well, double strengthened (relative to the concentration planned for testing) solutions of the test inhibitor and double strengthened liquid BHI medium inoculated with H. pylori (10^4-10^5 CFU/ml in the final volume in the well, corresponding to the optical density of the culture OD600=0.05) were mixed together in a 1:1 ratio.
Kanamycin at a concentration of 25 μg/ml (Irie et al., 1997) was used as a positive control, while Mili-Q deionized water and BHI medium not inoculated with bacteria were used as negative controls. Plates were shaken at 37° C., under microaerophilic conditions. […] After 24 hours, the OD600 of samples containing the negative control, i.e. with Mili-Q deionized water, was about 1.2-1.4, corresponding to a bacterial concentration of about […].
In addition, the method proposed by Knezevic et al. (2018) was used to check whether the observed OD600 was from live bacterial cells. For this purpose, an equal volume of Christensen's double strength urea broth (that is, containing twice the concentration of all components) was added to the wells after incubation, and the plates were additionally incubated for 4 hours in an oxygen atmosphere at 37° C. During incubation, in wells with urease produced by live bacteria, urea is converted to ammonia and carbon dioxide, changing the pH of the solution and thus the colour of the phenol red indicator contained in the medium (from orange to purple).
All experiments were performed in triplicate.
The experiments were carried out using the growth curve method as described in Example 3, and the results obtained for two of the compounds tested are shown in FIG. 5. As the water solubility of the compounds tested, with the exception of 2,6-diCl-Pu, is relatively poor, two experiments were carried out: the first with the maximum concentration possible under the experimental conditions in aqueous solution with a small admixture of DMSO, and the second with higher concentrations that led to partial precipitation of the compound.
The antibacterial activity of two compounds, mefloquine (in the form of hydrochloride) and quinine, described in the literature as potent in vitro inhibitors of the PNP enzyme from Plasmodium falciparum (Dziekan et al., 2019), was tested. Using a two-fold serial dilution method in liquid medium (as described in Example 3), the MIC values for mefloquine and quinine were determined against clinical H. pylori strains resistant to MTZ, CLR and MTZ+CLR (M26, M91, M92 and M93), as well as the reference H. pylori strain 26695. Four clinical H. pylori strains isolated from adults, from primary infections (the subjects had never previously been treated against H. pylori infection) were tested. These strains come from the collection of the Department of Microbiology of the Medical University of Wroclaw and were obtained due to collaboration with Prof. Grażyna Gościniak, MD, PhD. […]

[4] = target: T2, PNP from H. pylori strain 26695; assay: Inhibition of PNP from H. pylori, spectrophotometric phosphorolysis assay; format: biochemical; details: formycins; kinetic methods of Example 1; read-out: inhibition constant
Text: The specific activity of PNP is usually determined using inosine as a substrate, in an assay in which the phosphorolysis product, hypoxanthine, is oxidized to uric acid in a reaction catalysed by xanthine oxidase. However, in the inhibition assay of PNP from H. pylori strain 26695, 7-methylguanosine (m^7Guo) and guanosine (Guo) were used as nucleoside substrates to avoid potential inhibition of xanthine oxidase by the test compounds. Phosphorolysis of these two substrates can be observed using a direct spectrophotometric method in a known manner.
Enzymatic activity was studied in a quartz cuvette with an optical path length of 1 cm or 0.5 cm. The absorbance of the reaction mixture, at the observation wavelength, never exceeded 1.2. The reaction volume was 1 ml or 1.4 ml in cuvettes with optical path lengths of 1 cm and 0.5 cm, respectively. The reaction mixture contained 50 mM Hepes/NaOH buffer, pH 7.0, 50 mM phosphate buffer, pH 7.0 (unless otherwise indicated), nucleoside substrate and inhibitor (with the latter not added to the reference/control reactions). Reactions were usually initiated by adding the enzyme to a cuvette containing the other reaction components. However, in cases where possible slow formation of an inhibitor-enzyme complex was checked, a second variant was also used involving incubation of the enzyme in a reaction mixture containing the inhibitor but lacking the substrate, 7-methylguanosine, and initiation of the reaction by adding this substrate.
In order to determine the inhibition constants and determine the molecular mechanism of inhibition, equations describing different mechanisms of inhibition were fitted to the obtained experimental data. GraphPad Prism 8 program was used. The model best describing the obtained data was selected based on the sum of squares of deviations using the F test for models with different number of parameters and the Akaike criterion (AIC) for models with the same number of parameters.
The following equations were used to describe competitive inhibition, characterized by the inhibition constant Kic, [1], uncompetitive, characterized by the inhibition constant Kiu, [2], non-competitive, characterized by the inhibition constant Kin, [3], and mixed, characterized by the inhibition constants Kiu and Kic, [4] (Segel, 1993):
The last equation can also be represented in the following form, as used by GraphPad Prism software, where Kiu=alpha Kic:
Immucillin A was chosen as the most promising one for potential pharmacological use in combating H. pylori infection because immucillin A has an amino substituent at position 6 of the 9-dazapurine ring, while PNP found in the human body requires a substituent at this position having electron-pairs-hydrogen bond acceptors, such as a substituent in the form of a keto group, to strongly bind the ligand. According to the invention, it is therefore believed that immucillin A will not interact with the host PNP, and thus allow selective inhibition of the PNP from H. pylori. Using the methods described above, the effect of immucillin A on the rate of the 7-methylguanosine (m^7Guo) phosphorolysis reaction catalysed by PNP from H. pylori was examined (FIG. 1). Since it is known (Schramm, 2018) that immucillins form a strongly bound complex with the enzyme relatively slowly, reactions were initiated by adding the substrate, m^7Guo, to a cuvette in which the enzyme was incubated with the inhibitor, as described in Example 1.
Data analysis was also performed as described in this Example. The range of substrate concentrations tested was 10-200 μM or 10-280 μM (shown in FIG. 4), and the range of inhibitor concentrations was chosen according to the observed degree of inhibition of the reaction, in order to obtain a significant degree of inhibition that allows determination of the inhibition mechanism and determination of inhibition constants (see FIG. 4). […]

human PNP = target: T3, human PNP (Homo sapiens, UniProt P00491); details: Bzowska et al., 2000; cited from earlier work
T3 sequence (P00491 1-289): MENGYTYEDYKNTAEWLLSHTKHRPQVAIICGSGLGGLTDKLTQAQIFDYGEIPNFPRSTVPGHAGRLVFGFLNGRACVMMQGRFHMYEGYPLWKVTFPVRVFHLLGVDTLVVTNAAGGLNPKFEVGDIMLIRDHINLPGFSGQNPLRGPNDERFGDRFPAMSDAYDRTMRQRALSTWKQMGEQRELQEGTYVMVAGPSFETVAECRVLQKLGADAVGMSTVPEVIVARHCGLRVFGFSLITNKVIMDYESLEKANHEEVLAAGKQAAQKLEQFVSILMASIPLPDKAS

Cn1cnc2c([C@@H]3O[C@H](CO)C(O)[C@@H]3O)nnc-2c1N (some centres unmarked) [6-methylformycin A]
stronger inhibition than formycin A (PNP from E. coli [1]): 10 fold

Nc1ncnc2c([C@@H]3O[C@H](CO)[C@@H](O)[C@H]3O)[nH]nc12 [formycin A]
Ki (PNP from E. coli [2]): ~5 µM
Ki [3]: 14 µM
inhibition of H. pylori growth (% of the growth observed without the inhibitor) (H. pylori strain 26695): 50%
Ki [4]: 14 µM
inhibition of human PNP (human PNP): not an inhibitor

O=c1[nH]cnc2c([C@@H]3O[C@H](CO)[C@@H](O)[C@H]3O)n[nH]c12 [formycin B]
Ki (PNP from E. coli [2]): ~5 µM
Ki [3]: 1 µM
inhibition of H. pylori growth (% of the growth observed without the inhibitor) (H. pylori strain 26695): very weak inhibition
Ki [4]: 1 µM
inhibition of human PNP (human PNP): very weak inhibitor
